In patent US20220347308A1, “METHODS AND MEANS FOR INDUCING AN IMMUNE RESPONSE” (BIONTECH AG, priority 2015, published 2022):

Test system: interferon-alpha
Experiment: Sensitization by a first danger signal to a subsequent Protamine-RNA injection, serum interferon-alpha (ELISA)
Format: in vivo, mice
Conditions: first injection: 50 micrograms CpG, 10 micrograms imiquimod, 2 micrograms dsRNA or 10 micrograms RNA in particles, then 10 micrograms RNA in Protamine particles, sera 3 h after second injection, vs single Protamine-RNA injection
Protocol: The DNA oligonucleotide “CpG 1585” (invivogen) which is a mouse TLR9 agonist was diluted at 0.5 micrograms per microlitre in PBS. Imiquimod (invivogen) was diluted to 0.1 microgram per microliter in PBS. RNA (mRNA coding for firefly luciferase) and Protamine were diluted to 0.5 mg/ml using pure water. Hundred micrograms RNA (200 microliters) were mixed with hundred micrograms Protamine IPEX (200 microliters) thereby generating approximately 100 nm particles. Forty percent Glucose was added to reach 5% glucose final and 5% Glucose was added so that the final injectable solution contains 10 micrograms RNA (and 10 micrograms Protamine) in 70 microliters.
Mice were injected intravenous with 100 microliters of CpG (50 micrograms DNA “CpG(2h)PR11”) or 100 microliters of imiquimod (10 micrograms Imiquimod “Imi(2h)PR11”) or 70 microliters of Protamine-RNA particles (10 micrograms RNA “PR11(2h)PR11”) and 2 hours later all received 70 microliters of Protamine-RNA (10 micrograms RNA) intravenous. Three mice per group. Sera were drawn 3 hours after this second injection. As controls, mice were injected intravenous with 100 microliters of CpG (50 micrograms “CpG alone”) or 100 microliters of imiquimod (10 micrograms “Imi alone”) or 70 microliters of Protamine-RNA particles (10 micrograms RNA “PR11 alone”). Three mice per group. […] Interferon-alpha was measured in sera using Verikine™ ELISA kit from PBL. […]

In the case of `CC(C)Cn1cnc2c(N)nc3ccccc3c21` [Imiquimod], the “interferon-alpha in serum when given i.v. as first injection 2 h before Protamine-RNA particles” value is reported as “can sensitize the immune system to produce an enhanced amount of interferon-alpha” and the “interferon-alpha in serum when given i.v. as first injection 2 h before Protamine-RNA particles” value (listed as imiquimod) is reported as “strong (synergistic) interferon production”.
